In patent US7968294B2, “SLIT2 underexpression in metastatic prostate cancer” (The Regents of the University of Michigan, priority 2008, dated 2011):
“Also recorded” adds a separate entry of the source.

System: SLIT2 expression in prostate cancer cell lines
Assay: QRT-PCR analysis of SLIT2 transcript after compound treatment
Type: cell-based, human
Details: normalized to GAPDH housekeeping gene, FIG. 4c-e, DU145 prostate cancer cell lines, 5 uM SAHA time-course in panel d

Row | Compound | SLIT2 expression (transcript level)
1 | Nc1nccc2c1ncn2C1C=C(CO)C(O)C1O (centres unmarked) [DZNep] | Marked up-regulation
2 | O=C(CCCCCCC(=O)Nc1ccccc1)NO [SAHA] | restore the expression level of SLIT2; also recorded: up-regulated
